The target of this test is T1, human DLL3 (Homo sapiens, UniProt Q9NYJ7).
T1 sequence (Q9NYJ7 27-618): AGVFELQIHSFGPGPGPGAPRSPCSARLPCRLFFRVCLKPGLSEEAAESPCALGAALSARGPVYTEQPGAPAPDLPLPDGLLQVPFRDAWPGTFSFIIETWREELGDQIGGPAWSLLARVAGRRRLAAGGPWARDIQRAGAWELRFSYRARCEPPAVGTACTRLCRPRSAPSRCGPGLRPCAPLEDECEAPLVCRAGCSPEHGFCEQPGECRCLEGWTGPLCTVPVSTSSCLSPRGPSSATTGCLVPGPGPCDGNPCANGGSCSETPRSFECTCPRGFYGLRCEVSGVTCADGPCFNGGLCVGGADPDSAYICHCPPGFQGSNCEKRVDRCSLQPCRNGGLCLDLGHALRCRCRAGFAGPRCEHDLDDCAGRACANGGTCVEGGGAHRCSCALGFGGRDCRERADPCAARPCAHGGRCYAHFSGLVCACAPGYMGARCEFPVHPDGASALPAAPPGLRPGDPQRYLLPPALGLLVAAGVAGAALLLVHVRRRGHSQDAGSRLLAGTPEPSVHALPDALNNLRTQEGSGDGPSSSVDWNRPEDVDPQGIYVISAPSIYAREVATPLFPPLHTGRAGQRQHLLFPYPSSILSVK
Put plainly: Affinity determination by Surface Plasmon Resonance (SPR). As to conditions: 25° C., biotinylated human DLL3 immobilized on streptavidin sensor chip, 1:1 binding model; read-out: SPR KD. Format: binding. Put shortly:
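Kinetic and affinity constants were derived by fitting sensorgrams to a 1:1 binding model. Graded compound concentrations flowed at 100 μL/minute in 20 mM phosphate running buffer with 2% DMSO over streptavidin-immobilized biotinylated human DLL3, reference-subtracted.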

Numbered stars: 1 amine (or outer) side, 2 acyl side, 3 side chain; on linkers, the order of the positions; unused ones are H or OH. Bridge positions count the residues as written; N and C are the ends. Square brackets hold non-standard residues; d marks the D form. Side chains are listed from the residue outwards. Peptide text beside a SMILES is read from it. I, II: the chains in the order shown. * marks the point of attachment. DOTA = O=C(O)CN1CCN(CC(=O)O)CCN(CC(=O)*)CCN(CC(=O)O)CC1; PEG8 = NCCOCCOCCOCCOCCOCCOCCOCCOCCC(=O)O; X6 = C[C@@H]1CN([*:1])[C@@H]1C(=O)[*:2]; γGlu = O=C(O)[C@H](CCC(=O)[*:2])N[*:1]; 2Nal = N[C@@H](Cc1ccc2ccccc2c1)C(=O)O; X8 = CC1(C)CN([*:1])[C@@H]1C(=O)[*:2]; C12 diacid = O=C(O)CCCCCCCCCCC(=O)*; X7 = C[C@@]1(C(=O)[*:2])CCN1[*:1]; NMeK = CN[C@@H](CCCCN)C(=O)O

As to `CC[C@H](C)[C@H](NC(=O)[C@@H](NC(=O)[C@H](Cc1c[nH]c2ccccc12)NC(=O)CCCCCCCCCCC(=O)O)[C@@H](C)O)C(=O)N[C@H]1CSSC[C@@H](C(=O)N[C@@H](Cc2c[nH]c3ccccc23)C(=O)N2CCC[C@H]2C(=O)N[C@H](CCCCNC(=O)CN2CCN(CC(=O)O)CCN(CC(=O)O)CCN(CC(=O)O)CC2)C(N)=O)NC(=O)[C@H](CC(=O)O)NC(=O)[C@H](Cc2cnc[nH]2)NC(=O)[C@H](Cc2c[nH]c3ccccc23)NC(=O)[C@H](CC(N)=O)NC(=O)[C@H](CC(N)=O)NC1=O` [compound 349, C12OH-W-T-I-C(3)-N-N-W-H-D-C(3)-W-P-[D-Lys(DOTA)]-NH2] ({C12 diacid}-WTICNNWHDCWP[dK](DOTA)-NH2; disulfide 4-10), the dissociation constant Kd is 1 to 10 nM.
For the compound `CC[C@H](C)[C@H](NC(=O)[C@@H](NC(=O)[C@H](Cc1c[nH]c2ccccc12)NC(C)=O)[C@@H](C)O)C(=O)N[C@H]1CSSC[C@@H](C(=O)N[C@@H](Cc2c[nH]c3ccccc23)C(=O)N(C)[C@@H](CCCCNC(=O)CN2CCN(CC(=O)O)CCN(CC(=O)O)CCN(CC(=O)O)CC2)C(N)=O)NC(=O)[C@H](CC(=O)O)NC(=O)[C@H](Cc2cnc[nH]2)NC(=O)[C@H](Cc2ccc3ccccc3c2)NC(=O)[C@H](CC(N)=O)NC(=O)[C@H](CC(N)=O)NC1=O` [compound 352, Ac-W-T-I-C(3)-N-N-(2Nal)-H-D-C(3)-W-[NmeK(DOTA)]-NH2] (Ac-WTICNN[2Nal]HDCW[NMeK](DOTA)-NH2; disulfide 4-10), the Kd is under 1 nM.
For the compound `CC[C@H](C)[C@H](NC(=O)[C@@H](NC(=O)[C@H](Cc1c[nH]c2ccccc12)NC(C)=O)[C@@H](C)O)C(=O)N[C@H]1CSSC[C@@H](C(=O)N[C@@H](Cc2c[nH]c3ccccc23)C(=O)N2CCC[C@H]2C(=O)N[C@H](CCCCNC(=O)CNC(=O)[C@H](CO)NC(=O)CNC(=O)[C@H](CO)NC(=O)CNC(=O)[C@H](CO)NC(=O)CN2CCN(CC(=O)O)CCN(CC(=O)O)CCN(CC(=O)O)CC2)C(N)=O)NC(=O)[C@H](CC(=O)O)NC(=O)[C@H](Cc2cnc[nH]2)NC(=O)[C@H](Cc2ccc3ccccc3c2)NC(=O)[C@H](CC(N)=O)NC(=O)[C@H](CC(N)=O)NC1=O` [compound 353, Ac-W-T-I-C(3)-N-N-(2Nal)-H-D-C(3)-W-P-[D-Lys(G-S-G-S-G-S-DOTA)]-NH2] (I: Ac-WTICNN[2Nal]HDCWP[dK]-NH2 / II: {DOTA}-SGSGSG; disulfide I:4-I:10; amide I:13-II:C), the Kd is under 1 nM.
As to `CC[C@H](C)[C@H](NC(=O)[C@@H](NC(=O)[C@H](Cc1c[nH]c2ccccc12)NC(C)=O)[C@@H](C)O)C(=O)N[C@H]1CSSC[C@@H](C(=O)N[C@@H](Cc2c[nH]c3ccccc23)C(=O)N2CCC[C@H]2C(=O)N[C@H](CCCCNC(=O)CC[C@H](NC(=O)CN2CCN(CC(=O)O)CCN(CC(=O)O)CCN(CC(=O)O)CC2)C(=O)O)C(N)=O)NC(=O)[C@H](CC(=O)O)NC(=O)[C@H](Cc2cnc[nH]2)NC(=O)[C@H](Cc2ccc3ccccc3c2)NC(=O)[C@H](CC(N)=O)NC(=O)[C@H](CC(N)=O)NC1=O` [compound 354, Ac-W-T-I-C(3)-N-N-(2Nal)-H-D-C(3)-W-P-[D-Lys(gE-DOTA)]-NH2] (Ac-WTICNN[2Nal]HDCWP[dK]([γGlu-DOTA])-NH2; disulfide 4-10), the Kd is under 1 nM.
As for `CC[C@H](C)[C@H](NC(=O)[C@@H](NC(=O)[C@H](Cc1c[nH]c2ccccc12)NC(C)=O)[C@@H](C)O)C(=O)N[C@H]1CSSC[C@@H](C(=O)N[C@@H](Cc2c[nH]c3ccccc23)C(=O)N2CCC[C@H]2C(=O)N[C@H](CCCCNC(=O)CC[C@H](NC(=O)CC[C@H](NC(=O)CC[C@H](NC(=O)CN2CCN(CC(=O)O)CCN(CC(=O)O)CCN(CC(=O)O)CC2)C(=O)O)C(=O)O)C(=O)O)C(N)=O)NC(=O)[C@H](CC(=O)O)NC(=O)[C@H](Cc2cnc[nH]2)NC(=O)[C@H](Cc2ccc3ccccc3c2)NC(=O)[C@H](CC(N)=O)NC(=O)[C@H](CC(N)=O)NC1=O` [compound 355, Ac-W-T-I-C(3)-N-N-(2Nal)-H-D-C(3)-W-P-[D-Lys(gE-gE-gE-DOTA)]-NH2] (Ac-WTICNN[2Nal]HDCWP[dK]([γGlu-γGlu-γGlu-DOTA])-NH2; disulfide 4-10), the equilibrium dissociation constant (Kd) is under 1 nM.
For the compound `CC[C@H](C)[C@H](NC(=O)[C@@H](NC(=O)[C@H](Cc1c[nH]c2ccccc12)NC(C)=O)[C@@H](C)O)C(=O)N[C@H]1CSSC[C@@H](C(=O)N[C@@H](Cc2c[nH]c3ccccc23)C(=O)N2CCC[C@H]2C(=O)N[C@H](CCCCNC(=O)[C@H]2CCCN2C(=O)CCOCCOCCOCCOCCOCCOCCOCCOCCNC(=O)CN2CCN(CC(=O)O)CCN(CC(=O)O)CCN(CC(=O)O)CC2)C(N)=O)NC(=O)[C@H](CC(=O)O)NC(=O)[C@H](Cc2cnc[nH]2)NC(=O)[C@H](Cc2ccc3ccccc3c2)NC(=O)[C@H](CC(N)=O)NC(=O)[C@H](CC(N)=O)NC1=O` [compound 356, Ac-W-T-I-C(3)-N-N-(2Nal)-H-D-C(3)-W-P-[D-Lys((D-Pro)-PEG8-DOTA)]-NH2] (Ac-WTICNN[2Nal]HDCWP[dK]([dP-PEG8-DOTA])-NH2; disulfide 4-10), the dissociation constant (Kd) is under 1 nM.
On to `CC[C@H](C)[C@H](NC(=O)[C@@H](NC(=O)[C@H](Cc1c[nH]c2ccccc12)NC(C)=O)[C@@H](C)O)C(=O)N[C@H]1CSSC[C@@H](C(=O)N[C@@H](Cc2c[nH]c3ccccc23)C(=O)N2CCC[C@H]2C(=O)N2CCC[C@@H]2C(=O)N2CCC[C@@H]2C(=O)N2CCC[C@@H]2C(=O)NCCOCCOCCOCCOCCOCCOCCOCCOCCC(=O)N[C@H](CCCCNC(=O)CN2CCN(CC(=O)O)CCN(CC(=O)O)CCN(CC(=O)O)CC2)C(N)=O)NC(=O)[C@H](CC(=O)O)NC(=O)[C@H](Cc2c[nH]cn2)NC(=O)[C@H](Cc2ccc3ccccc3c2)NC(=O)[C@H](CC(N)=O)NC(=O)[C@H](CC(N)=O)NC1=O` [compound 357, Ac-W-T-I-C(3)-N-N-(2Nal)-H-D-C(3)-W-P-(D-Pro)3-PEG8-[D-Lys(DOTA)]-NH2] (Ac-WTICNN[2Nal]HDCWP[dP][dP][dP][PEG8][dK](DOTA)-NH2; disulfide 4-10), for which the Kd was under 1 nM.
For the compound `CC[C@H](C)[C@H](NC(=O)[C@@H](NC(=O)[C@H](Cc1c[nH]c2ccccc12)NC(C)=O)[C@@H](C)O)C(=O)N[C@H]1CSSC[C@@H](C(=O)N[C@@H](Cc2c[nH]c3ccccc23)C(=O)N2CCC[C@H]2C(=O)N[C@H](CCCCNC(=O)[C@H]2CCCN2C(=O)[C@H]2CCCN2C(=O)[C@H]2CCCN2C(=O)CCOCCOCCOCCOCCOCCOCCOCCOCCNC(=O)CN2CCN(CC(=O)O)CCN(CC(=O)O)CCN(CC(=O)O)CC2)C(N)=O)NC(=O)[C@H](CC(=O)O)NC(=O)[C@H](Cc2c[nH]cn2)NC(=O)[C@H](Cc2ccc3ccccc3c2)NC(=O)[C@H](CC(N)=O)NC(=O)[C@H](CC(N)=O)NC1=O` [compound 358, Ac-W-T-I-C(3)-N-N-(2Nal)-H-D-C(3)-W-P-[D-Lys((D-Pro)3-PEG8-DOTA)]-NH2] (Ac-WTICNN[2Nal]HDCWP[dK]([dP-dP-dP-PEG8-DOTA])-NH2; disulfide 4-10), the Kd is under 1 nM.
Consider `CC[C@H](C)[C@H](NC(=O)[C@@H](NC(=O)[C@H](Cc1c[nH]c2ccccc12)NC(C)=O)[C@@H](C)O)C(=O)N[C@H]1CSSC[C@@H](C(=O)N[C@@H](Cc2c[nH]c3ccccc23)C(=O)N2C[C@@H](C)[C@H]2C(=O)N[C@H](CCCCNC(=O)CN2CCN(CC(=O)O)CCN(CC(=O)O)CCN(CC(=O)O)CC2)C(N)=O)NC(=O)[C@H](CC(=O)O)NC(=O)[C@H](Cc2c[nH]cn2)NC(=O)[C@H](Cc2ccc3ccccc3c2)NC(=O)[C@H](CC(N)=O)NC(=O)[C@H](CC(N)=O)NC1=O` [compound 359, Ac-W-T-I-C(3)-N-N-(2Nal)-H-D-C(3)-W-R-3Me-Aze-[D-Lys(DOTA)]-NH2] (Ac-WTICNN[2Nal]HDCW[X6][dK](DOTA)-NH2; disulfide 4-10), for which the Kd was under 1 nM.
On to `CC[C@H](C)[C@H](NC(=O)[C@@H](NC(=O)[C@H](Cc1c[nH]c2ccccc12)NC(C)=O)[C@@H](C)O)C(=O)N[C@H]1CSSC[C@@H](C(=O)N[C@@H](Cc2c[nH]c3ccccc23)C(=O)N2CC[C@@]2(C)C(=O)N[C@H](CCCCNC(=O)CN2CCN(CC(=O)O)CCN(CC(=O)O)CCN(CC(=O)O)CC2)C(N)=O)NC(=O)[C@H](CC(=O)O)NC(=O)[C@H](Cc2c[nH]cn2)NC(=O)[C@H](Cc2ccc3ccccc3c2)NC(=O)[C@H](CC(N)=O)NC(=O)[C@H](CC(N)=O)NC1=O` [compound 360, Ac-W-T-I-C(3)-N-N-(2Nal)-H-D-C(3)-W-aMe-Aze-[D-Lys(DOTA)]-NH2] (Ac-WTICNN[2Nal]HDCW[X7][dK](DOTA)-NH2; disulfide 4-10), for which the Kd is under 1 nM.
Consider `CC[C@H](C)[C@H](NC(=O)[C@@H](NC(=O)[C@H](Cc1c[nH]c2ccccc12)NC(C)=O)[C@@H](C)O)C(=O)N[C@H]1CSSC[C@@H](C(=O)N[C@@H](Cc2c[nH]c3ccccc23)C(=O)N2CC(C)(C)[C@H]2C(=O)N[C@H](CCCCNC(=O)CN2CCN(CC(=O)O)CCN(CC(=O)O)CCN(CC(=O)O)CC2)C(N)=O)NC(=O)[C@H](CC(=O)O)NC(=O)[C@H](Cc2c[nH]cn2)NC(=O)[C@H](Cc2ccc3ccccc3c2)NC(=O)[C@H](CC(N)=O)NC(=O)[C@H](CC(N)=O)NC1=O` [compound 362, Ac-W-T-I-C(3)-N-N-(2Nal)-H-D-C(3)-W-3Me2-Aze-[D-Lys(DOTA)]-NH2] (Ac-WTICNN[2Nal]HDCW[X8][dK](DOTA)-NH2; disulfide 4-10), for which the equilibrium dissociation constant (Kd) was under 1 nM.

For the origin of these results see patent publication US20250011368A1, “DLL3 TARGETING PEPTIDES AND CONSTRUCTS THEREOF” (MARIANA ONCOLOGY INC., priority 2023, published 2025).
